Assay results published in patent publication US20040142007A1, “Cosmetic preparations containing an extract of germinating plants” (priority 2001, published 2004).

Test system: B16 melanocytes
Test: Inhibition of melanin synthesis in B16 melanocytes
Type: cell-based
Conditions: 0.5% w/v; 3 days; control = 100%
Experimental: To carry out the test, melanocytes (B16 cell line) were incubated for 3 days at 37° C./5% CO2 in a standard growth medium for cell cultures containing foetal calf serum (FCS). The growth medium was then replaced by a standard medium with which the substances to be tested were adjusted to different concentrations. After incubation for 3 days, the number of living cells was determined through the cell protein content (Bradford's method) and the content of synthesized melanin—recorded in the cell homogenizate at an optical density of 475 nm. The results are expressed in % against a control of pure cell culture medium.

With `OC[C@H]1O[C@@H](Oc2ccc(O)cc2)[C@H](O)[C@@H](O)[C@@H]1O` [Arbutin] the Cell protein content was 81% and the Melanin content was 35%.
